Assay results from US4298690A, “Antibiotics XK-62-3 and XK-62-4 and process for production thereof” (Kyowa Hakko Kogyo Co., Ltd., priority 1977, dated 1981).
In brackets after ≈: the same amount, converted by molar mass. Where a name gives a salt, the structure may show the parent alone.

Tests used:
[1] = Acute toxicity in dd-mice; conditions: mouse, in vivo
[2] = tested on: Klebsiella pneumoniae KY 4261; experiment: MIC by agar dilution method at pH 8.0, Klebsiella pneumoniae KY 4261; assay type: cell-based; conditions: KY4261, read-out: Minimum Inhibitory Concentration
Description: (§1) Table 4 illustrates the antibacterial spectra of XK-62-3 and XK-62-4 against various microorganisms.
(§2) (Minimum Inhibitory Concentration, γ/ml
(§3) measured by agar dilution method at pH 8.0)

[3] = tested on: Pseudomonas aeruginosa BMH No. 1; experiment: MIC by agar dilution method at pH 8.0, Pseudomonas aeruginosa BMH No. 1; assay type: cell-based; conditions: BMHNO.1, read-out: Minimum Inhibitory Concentration
Description: as §1, §2, §3

[4] = tested on: Escherichia coli ATCC 26; experiment: MIC by agar dilution method at pH 8.0, Escherichia coli ATCC 26; assay type: cell-based; conditions: ATCC26, read-out: Minimum Inhibitory Concentration
Description: as §1, §2, §3

[5] = tested on: resistant strains of Escherichia coli and Pseudomonas aeruginosa (3-N-acetylation, 2"-adenylation); experiment: Antibacterial activity against resistant strains with 3-N-acetylation, 2"-adenylation (in words); assay type: cell-based; conditions: E. coli and P. aeruginosa resistant by 3-N-acetylation, etc.
Description: as §1, §2, §3

[6] = Solubility of the free base; assay type: physicochemical; conditions: for solubility in organic solvents: chloroform, benzene, ethyl acetate, butyl acetate, ether, butanol, petroleum ether, n-hexane
[7] = tested on: Pseudomonas aeruginosa KY 8511; experiment: MIC by agar dilution method at pH 8.0, Pseudomonas aeruginosa KY 8511; assay type: cell-based; conditions: KY8511, Pseudomonas aeruginosa KY 8511, resistant to gentamicin, AAC(3)-I, read-out: Minimum Inhibitory Concentration
Description: as §1, §2, §3

[8] = tested on: Escherichia coli KY 8327; experiment: MIC by agar dilution method at pH 8.0, Escherichia coli KY 8327; assay type: cell-based; conditions: KY8327, pH 8, read-out: Minimum Inhibitory Concentration
Description: as §1, §2, §3

[9] = tested on: Pseudomonas aeruginosa Z 444; experiment: MIC by agar dilution method at pH 8.0, Pseudomonas aeruginosa Z 444; assay type: cell-based; conditions: Z444, Pseudomonas aeruginosa Z 444, resistant to gentamicin, AAC(6')-III, read-out: Minimum Inhibitory Concentration
Description: as §1, §2, §3

[10] = tested on: Salmonella typhosa ATCC 9992; experiment: MIC by agar dilution method at pH 8.0, Salmonella typhosa ATCC 9992; assay type: cell-based; conditions: Salmonella enterica, pH 8, read-out: Minimum Inhibitory Concentration
Description: as §1, §2, §3

[11] = tested on: Klebsiella pneumoniae ATCC 10031; experiment: MIC by agar dilution method at pH 8.0, Klebsiella pneumoniae ATCC 10031; assay type: cell-based; conditions: ATCC10031, read-out: Minimum Inhibitory Concentration
Description: as §1, §2, §3

[12] = tested on: Escherichia coli KY 8356; experiment: MIC by agar dilution method at pH 8.0, Escherichia coli KY 8356; assay type: cell-based; conditions: KY8356, read-out: Minimum Inhibitory Concentration
Description: as §1, §2, §3

[13] = tested on: Escherichia coli KY 8310; experiment: MIC by agar dilution method at pH 8.0, Escherichia coli KY 8310; assay type: cell-based; conditions: KY8310, read-out: Minimum Inhibitory Concentration
Description: as §1, §2, §3

[14] = tested on: Pseudomonas aeruginosa KY 8563; experiment: MIC by agar dilution method at pH 8.0, Pseudomonas aeruginosa KY 8563; assay type: cell-based; conditions: KY8563, Pseudomonas aeruginosa KY 8563, resistant to gentamicin, AAC(3)-II, read-out: Minimum Inhibitory Concentration
Description: as §1, §2, §3

[15] = tested on: Escherichia coli KY 8348; experiment: MIC by agar dilution method at pH 8.0, Escherichia coli KY 8348; assay type: cell-based; conditions: KY8348, Escherichia coli KY 8348, resistant to gentamicin, AAC(3)-I, read-out: Minimum Inhibitory Concentration
Description: as §1, §2, §3

[16] = tested on: Serratia marcescens KY 4248; experiment: MIC by agar dilution method at pH 8.0, Serratia marcescens KY 4248; assay type: cell-based; conditions: KY4248, read-out: Minimum Inhibitory Concentration
Description: as §1, §2, §3

[17] = tested on: Shigella sonnei ATCC 9290; experiment: MIC by agar dilution method at pH 8.0, Shigella sonnei ATCC 9290; assay type: cell-based; conditions: ATCC9290, read-out: Minimum Inhibitory Concentration
Description: as §1, §2, §3

[18] = tested on: Bacillus subtilis No. 10707; experiment: MIC by agar dilution method at pH 8.0, Bacillus subtilis No. 10707; assay type: cell-based; conditions: read-out: Minimum Inhibitory Concentration
Description: as §1, §2, §3

[19] = tested on: Bacillus subtilis No. 10707; experiment: Activity (units) of purified preparate; assay type: cell-based; conditions: for activity: per mg not given, Examples 2D, 3, 4
Description: The activity of the eluate is determined against Bacillus subtilis No. 10707 by a paper disk method using an agar plate. Active fractions are combined and concentrated in vacuo to about 3 L. The concentrate is adjusted to pH 8.0 with 6 N sulfuric acid and passed through a column packed with 3 L of an anion exchange resin, Dowex 1×2 (OH^- form). The column is washed with about 20 L of water and active principles are eluted with 1 N aqueous ammonia. The active fractions are combined and concentrated to 1/10 by volume. The pH of the concentrate is adjusted to 10.5 with 6 N sodium hydroxide and 4 volumes of acetone is added thereto. The resulting precipitate is removed by filtration and the acetone layer is concentrated to 2 L. The concentrate is adjusted to pH 4.5 with 6 N sulfuric acid and then 10 L of methanol is added thereto. After cooling, a white precipitate is obtained. The precipitate is separated by filtration and washed with methanol. After drying in vacuo, about 250 g of white powder (sulfate form) is obtained.
The residue is dissolved in a small amount of water and the solution is freeze-dried to obtain about 1.5 g of purified preparate of the free base of XK-62-3.
The residue is dissolved in a small amount of water and the solution is freeze-dried to obtain about 2.2 g of purified preparate of the free base of XK-62-4.
After the completion of fermentation, the culture liquor is adjusted to pH 2.0 with 12 N sulfuric acid and stirred for 30 minutes. Then, about 20 kg of Radiolite No. 600 (filter aid) is added thereto and the microbial cells are removed by filtration. The filtrate is adjusted to pH 8.0 with 6 N sodium hydroxide and passed through a column packed with 100 L of a cation exchange resin, Amberlite IRC-50 (NH4^+ form). After washing the resin with water, the active substances are eluted out with 1 N aqueous ammonia. The eluate is obtained in fractions and the activity of each of the fractions is determined against Bacillus subtilis No. 10707 by a paper disc method using an agar plate. The eluate is concentrated to 2 L under reduced pressure. The concentrate is adjusted to pH 4.5 with 6 N sulfuric acid and the resulting insoluble substance is removed by filtration. To the filtrate 20 L of methanol is added to form a white precipitate. The precipitate is separated by filtration and washed with methanol. After drying in vacuo, 500 g of white powder, of a crude XK-62 series (sulfate form) is obtained.

[20] = tested on: Proteus vulgaris ATCC 6897; experiment: MIC by agar dilution method at pH 8.0, Proteus vulgaris ATCC 6897; assay type: cell-based; conditions: ATCC6897, read-out: Minimum Inhibitory Concentration
Description: as §1, §2, §3

[21] = tested on: Staphylococcus aureus ATCC 6538P; experiment: MIC by agar dilution method at pH 8.0, Staphylococcus aureus ATCC 6538P; assay type: cell-based; conditions: ATCC6538P, read-out: Minimum Inhibitory Concentration
Description: as §1, §2, §3

[22] = tested on: Gram-positive and Gram-negative bacteria; experiment: Antibacterial activity against a broad range of bacteria (in words); assay type: cell-based
Description: as §1, §2, §3

[23] = tested on: Providenicia sp. KY 8464; experiment: MIC by agar dilution method at pH 8.0, Providenicia sp. KY 8464; assay type: cell-based; conditions: read-out: Minimum Inhibitory Concentration
Description: as §1, §2, §3

[24] = tested on: resistant strains of Escherichia coli and Pseudomonas aeruginosa (6'-N-acetylation); experiment: Antibacterial activity against resistant strains with 6'-N-acetylation (in words); assay type: cell-based; conditions: E. coli and P. aeruginosa resistant by 6'-N-acetylation, etc.
Description: as §1, §2, §3

[25] = tested on: Pseudomonas aeruginosa Z 445; experiment: MIC by agar dilution method at pH 8.0, Pseudomonas aeruginosa Z 445; assay type: cell-based; conditions: Z445, Pseudomonas aeruginosa Z 445, resistant to gentamicin, AAC(6')-III, read-out: Minimum Inhibitory Concentration
Description: as §1, §2, §3

[26] = tested on: Escherichia coli KY 8332; experiment: MIC by agar dilution method at pH 8.0, Escherichia coli KY 8332; assay type: cell-based; conditions: KY8332, Escherichia coli KY 8332, resistant to kanamycin, AAC(6')-I, read-out: Minimum Inhibitory Concentration
Description: as §1, §2, §3

[27] = tested on: resistant strains of Escherichia coli and Pseudomonas aeruginosa (6'-N-acetylation); conditions: strains with 6'-N-acetylation, etc.; known antibiotics; cited from earlier work
[28] = tested on: resistant strains of Escherichia coli and Pseudomonas aeruginosa (3-N-acetylation, 2"-adenylation); conditions: strains with 3-N-acetylation, etc., known antibiotics; cited from earlier work
[29] = free base, Example 1, 1 mg of pure preparate corresponds to 1000 units

CNC1CC(N)C(OC2OCC(C)(O)C(NC)C2O)C(O)C1OC1OC(CN)CCC1N (stereo not shown) [XK-62-3]
LD50 [1]: 106 mg/kg
MIC [2]: 0.066 µg/mL (≈ 0.142 µM)
MIC [3]: 0.26 µg/mL (≈ 0.561 µM)
MIC [4]: 0.066 µg/mL (≈ 0.142 µM)
antibacterial activity against certain resistant strains [5]: strong antibacterial activity
solubility in organic solvents [6]: insoluble
solubility in ethanol and acetone [6]: slightly soluble
solubility in methanol [6]: soluble
solubility in water [6]: very soluble
MIC [7]: 0.26 µg/mL (≈ 0.561 µM)
MIC [8]: 0.066 µg/mL (≈ 0.142 µM)
MIC [9]: > 10 µg/mL
MIC [10]: 0.033 µg/mL (≈ 0.0712 µM)
MIC [11]: 0.0082 µg/mL (≈ 0.0177 µM)
MIC [12]: 0.26 µg/mL (≈ 0.561 µM)
MIC [13]: 0.066 µg/mL (≈ 0.142 µM)
MIC [14]: 0.25 µg/mL (≈ 0.539 µM)
MIC [15]: 0.033 µg/mL (≈ 0.0712 µM)
MIC [16]: 1.52 µg/mL (≈ 3.28 µM)
MIC [17]: 0.13 µg/mL (≈ 0.28 µM)
MIC [18]: < 0.0011 µg/mL
activity of purified preparate ([19]; Example 2): 970 units/mg
activity of purified preparate [19, 29]: about 985 unit/mg
MIC [20]: 0.26 µg/mL (≈ 0.561 µM)
MIC [21]: 0.0021 µg/mL (≈ 0.00453 µM)
antibacterial activity [22]: very strong antibacterial activity
MIC [23]: 1.04 µg/mL (≈ 2.24 µM)

CNC1C(O)C(OC2C(N)CC(N)C(OC3OC(CN(C)C)CCC3N)C2O)OCC1(C)O (stereo not shown) [XK-62-4]
LD50 [1]: 25.9 mg/kg
MIC [2]: 0.066 µg/mL (≈ 0.138 µM)
MIC [3]: 0.26 µg/mL (≈ 0.544 µM)
MIC [4]: 0.033 µg/mL (≈ 0.0691 µM)
solubility in organic solvents [6]: insoluble
solubility in ethanol and acetone [6]: slightly soluble
solubility in methanol [6]: soluble
solubility in water [6]: very soluble
MIC [9]: 0.26 µg/mL (≈ 0.544 µM)
MIC [10]: 0.011 µg/mL (≈ 0.023 µM)
MIC [11]: 0.0082 µg/mL (≈ 0.0172 µM)
MIC [13]: 0.066 µg/mL (≈ 0.138 µM)
MIC [14]: > 10 µg/mL
antibacterial activity against certain resistant strains [24]: strong antibacterial activity
MIC [16]: 0.26 µg/mL (≈ 0.544 µM)
MIC [17]: 0.066 µg/mL (≈ 0.138 µM)
MIC [18]: < 0.0011 µg/mL
activity of purified preparate [19, 29]: about 980 unit/mg
activity [19]: 970 units
MIC [20]: 0.13 µg/mL (≈ 0.272 µM)
MIC [21]: 0.0021 µg/mL (≈ 0.0044 µM)
MIC [25]: 0.26 µg/mL (≈ 0.544 µM)
antibacterial activity [22]: very strong antibacterial activity
MIC [26]: 0.033 µg/mL (≈ 0.0691 µM)

NC[C@@H]1CC[C@@H](N)[C@@H](O[C@H]2[C@H](O)[C@@H](O[C@H]3O[C@H](CO)[C@@H](O)[C@H](N)[C@H]3O)[C@H](N)C[C@@H]2N)O1 [dibekacin, 3,4-dideoxy kanamycin B]
effect on resistant strains [27]: ineffective

NCC1OC(OC2C(N)CC(N)C(OC3OC(CO)C(O)C(N)C3O)C2O)C(O)C(O)C1O (stereo not shown) [kanamycin A]
effect on resistant strains [27]: ineffective

NC[C@H]1O[C@H](O[C@H]2[C@H](O)[C@@H](O[C@H]3O[C@H](CO)[C@@H](O)[C@H](N)[C@H]3O)[C@H](N)C[C@@H]2N)[C@H](O)[C@@H](O)[C@@H]1O [kanamycin]
effect on resistant strains [28]: ineffective

CNCC1CCC(N)C(OC2C(N)CC(N)C(OC3OCC(C)(O)C(NC)C3O)C2O)O1 (stereo not shown) [sagamicin (antibiotic XK-62-2)]
effect on resistant strains [28]: ineffective

CN[C@@H]1[C@@H](O)[C@@H](O[C@@H]2[C@@H](O)[C@H](O[C@H]3OC(CN)=CC[C@H]3N)[C@@H](N)C[C@H]2N)OC[C@]1(C)O [sisomicin]
effect on resistant strains [27]: ineffective

CNC1CC(N)C(OC2OCC(C)(O)C(NC)C2O)C(O)C1OC1OC(CN)CCC1N (stereo not shown) [sulfate salt of XK-62-3]
activity [19]: about 630 units

CNC1C(O)C(OC2C(N)CC(N)C(OC3OC(CN(C)C)CCC3N)C2O)OCC1(C)O (stereo not shown) [sulfate salt of XK-62-4]
activity [19]: about 625 units
